The values that follow are results of earlier work, collected in patent US20060104952A1, “Genomic barrier to viral disease” (priority 2004, published 2006).

Molecules are shown by their SMILES.

The subject of this data set is genes. The following applies: ref 10 (CoQ10 supplementation, human skeletal muscle).

On to `COC1=C(OC)C(=O)C(C/C=C(\C)CC/C=C(\C)CC/C=C(\C)CC/C=C(\C)CC/C=C(\C)CC/C=C(\C)CC/C=C(\C)CC/C=C(\C)CC/C=C(\C)CCC=C(C)C)=C(C)C1=O` [coenzyme Q10], for which the “number of genes whose expression is influenced” value is recorded as “at least 115 genes”.
